From article PMC5670239, “Structural basis for mutually exclusive co-transcriptional nuclear cap-binding complexes with either NELF-E or ARS2” (Nature Communications, 2017)
Where a chain is given by its changes, count along the chain named.

How the values were obtained:
[1] = molecular target: T1, CBC-ARS2 827–871 (Homo sapiens, UniProt P52298); assay: ITC, m^7GTP titrated to CBC saturated with ARS2 827–871; assay type: binding
T1 sequence (P52298 1-156): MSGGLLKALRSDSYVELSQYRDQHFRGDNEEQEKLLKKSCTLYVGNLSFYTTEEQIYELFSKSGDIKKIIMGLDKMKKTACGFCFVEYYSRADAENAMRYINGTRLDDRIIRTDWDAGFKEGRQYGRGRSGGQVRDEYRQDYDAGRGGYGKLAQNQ
T1 sequence (Q09161 20-790 partner): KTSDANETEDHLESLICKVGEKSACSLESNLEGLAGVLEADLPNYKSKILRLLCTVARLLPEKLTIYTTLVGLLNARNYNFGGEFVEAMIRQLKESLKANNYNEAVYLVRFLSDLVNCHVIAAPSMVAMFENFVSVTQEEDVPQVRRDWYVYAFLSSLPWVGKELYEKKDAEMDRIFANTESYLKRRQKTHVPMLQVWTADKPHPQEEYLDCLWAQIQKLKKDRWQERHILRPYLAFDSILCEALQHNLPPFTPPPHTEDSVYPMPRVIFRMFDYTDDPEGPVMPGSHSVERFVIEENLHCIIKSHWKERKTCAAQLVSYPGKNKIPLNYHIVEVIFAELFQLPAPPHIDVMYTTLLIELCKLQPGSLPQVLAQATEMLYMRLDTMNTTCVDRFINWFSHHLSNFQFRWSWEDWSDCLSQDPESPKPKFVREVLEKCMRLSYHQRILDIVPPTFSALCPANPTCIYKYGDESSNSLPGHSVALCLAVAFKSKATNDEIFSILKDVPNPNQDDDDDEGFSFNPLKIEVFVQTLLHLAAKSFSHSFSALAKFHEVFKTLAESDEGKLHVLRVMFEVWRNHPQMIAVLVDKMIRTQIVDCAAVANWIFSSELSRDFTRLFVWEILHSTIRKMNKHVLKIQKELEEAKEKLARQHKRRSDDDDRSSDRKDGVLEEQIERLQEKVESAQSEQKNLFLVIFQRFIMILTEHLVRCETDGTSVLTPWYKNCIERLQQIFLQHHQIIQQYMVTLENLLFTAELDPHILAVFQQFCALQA
T1 sequence (Q9BXP5 832-876 partner): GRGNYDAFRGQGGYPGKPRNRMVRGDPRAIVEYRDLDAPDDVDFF
Excerpt: Supplementary Figure 7. Influence of ARS2 and NELF-E on m7GTP binding to CBC.
Representative isothermal titration calorimetry data, presented as in the caption to Figure 1C,
allowing determination of the affinity of CBC to m7GTP in the absence (left) or in the
presence of bound ARS2827-871 (middle) or NELF-E244-380 (right). CBC or CBC saturated
with 2.2 molar excess of ARS2827-871 or NELF-E244-380 in the sample cell was titrated by
m7GTP. KD values represent the average from at least two independent experiments (see […]

[2] = molecular target: T2, CBCmut (Homo sapiens, UniProt P52298, Y50A); assay: ITC, m^7GTP binding to CBCmut; details: 25 °C, pH 7.8, m^7GTP titrated to CBCmut, mean ± SD of 2 experiments
T2 sequence (P52298 1-156 Y50A): T1 sequence (P52298 1-156) with Y50A
T2 sequence (Q09161 20-790 Y461A/R610E/H651A partner): T1 sequence (Q09161 20-790 partner) with Y442A, R591E, H632A
Procedure: (§1) For CBC, a triple mutant in CBP80 (Y461A/R610E/H651A) was combined with various mutations in CBP20 (Y50A, Y50A/Y89A, or Y50A/Y89A/D107R).
(§2) ITC experiments were performed on a MicroCal ITC200 system (Malvern). Proteins were dialyzed overnight in buffer 20 mM HEPES, 120 mM NaCl, 2 mM tris(2-carboxyethyl)phosphine, pH 7.8. Injections of 1.5 µl protein A were added at an interval of 120–180 s into 205 µl of protein B in the cell, with a stirring speed of 800 rpm at 25 °C. The experimental data were analysed with MicroCal ITC Origin and were fitted to a single-site binding equation.

[3] = molecular target: T3, CBC (6 mutations) (Homo sapiens, UniProt P52298, D107R/Y50A/Y89A); assay: ITC, m^7GTP binding to CBC with triple mutants of both CBP20 and CBP80; details: 25 °C, pH 7.8, CBP80 Y461A/R610E/H651A + CBP20 Y50A/Y89A/D107R, mean ± SD of 2 experiments
T3 sequence (P52298 1-156 Y50A/Y89A/D107R): T1 sequence (P52298 1-156) with Y50A, Y89A, D107R
T3 sequence (Q09161 20-790 Y461A/R610E/H651A partner): T1 sequence (Q09161 20-790 partner) with Y442A, R591E, H632A
Procedure: as §1, §2

Kd ([1]; 25 °C, pH 7.8, CBC saturated with 2.2 molar excess of ARS2 827–871, titrated by m^7GTP, mean ± SD of 2 experiments, SD): 18 ± 1 nM
Increase of the affinity of CBC for cap (m^7GTP) by saturating ARS2 ([1]; compared to m^7GTP binding to CBC alone): ~ 7 factor
K D [2]: as well as wild-type CBC
Kd ([2]; SD): 95 ± 24 nM
Kd [3]: 70000 ± 4000 nM
SMILES: C[n+]1cn([C@@H]2O[C@H](COP(=O)(O)OP(=O)([O-])OP(=O)(O)O)[C@@H](O)[C@H]2O)c2nc(N)[nH]c(=O)c21 [m^7GTP]
